Laboratory results published in patent publication US10562909B2, “Fused quadracyclic compounds, compositions and uses thereof” (Tabomedex Biosciences, LLC, priority 2016, dated 2020).

Molecular target: MAPKAPK2 (Homo sapiens, UniProt P49137)
Experiment: MK2 Enzymatic Assay
Assay type: biochemical
Conditions: 0.5 nM MAPKAPK2, 3 μM ATP, 2 μM Ser/Thr4 peptide, 23° C., values given as concentration bins
Experimental: Briefly, 5 μL of 2× (4 μM) 100% phosphorylation peptide was delivered into the control wells of a 384-well assay plate. 5 μL of 2× (1 nM) MAPKAPK2 and 2× peptide (4 μM) mixture in assay buffer was dispensed to remaining columns of assay plate using Eppendorf electronic multiple channel pipette. The assay plate was incubated for 20 minutes. 5 μL of 2× ATP (6 μM) in assay buffer was dispensed to each well and then the assay plate was lightly centrifuged. The assay plate was incubated for an additional 120 minutes.
5 μL of development reagent A was dispensed to all wells using Eppendorf electronic multiple channel pipette. After incubating the development reaction for 120 min, plates were read on a Perkin Elmer Envision instrument.
Percent phosphorylation was calculated using the following formula:
[formula] Where • C100%=Average Coumarin emission signal of the 100% Phos. Control • C0%=Average Coumarin emission signal of the 0% Phos. Control • F100%=Average Fluorescein emission signal of the 100% Phos. Control • F0%=Average Flurescein emission signal of the 0% Phos. Control

Chain of MAPKAPK2 (P49137 whole entry, species assumed): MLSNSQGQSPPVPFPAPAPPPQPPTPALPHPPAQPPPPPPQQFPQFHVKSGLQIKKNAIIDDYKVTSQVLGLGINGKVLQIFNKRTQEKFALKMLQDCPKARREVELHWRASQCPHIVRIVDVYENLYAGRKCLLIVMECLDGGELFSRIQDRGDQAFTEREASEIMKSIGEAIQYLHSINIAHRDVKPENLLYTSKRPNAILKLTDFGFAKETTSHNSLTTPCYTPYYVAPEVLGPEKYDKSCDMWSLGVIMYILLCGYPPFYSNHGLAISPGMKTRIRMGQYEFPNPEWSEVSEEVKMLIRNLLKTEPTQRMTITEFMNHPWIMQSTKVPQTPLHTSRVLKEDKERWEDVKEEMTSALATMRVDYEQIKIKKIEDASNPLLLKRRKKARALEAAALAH

SMILES | IC50
CN(C)[C@H]1CN(c2ccc3c(c2)Cn2cc(-c4ccc(C#N)cc4)cc2-c2nccn2-3)C[C@@H]1O [Compound 131, 4-(7-((3S,4S)-3-(dimethylamino)-4-hydroxypyrrolidin-1-yl)-9H-benzo[e]imidazo[2,1-c]pyrrolo[1,2-a][1,4]diazepin-12-yl)benzonitrile] | < 50 nM
N#Cc1ccc(-c2cc3n(c2)Cc2cc(N4CC[C@H](CN5CCC(O)CC5)C4)ccc2-n2cnnc2-3)cc1 [Compound 111, (R)-4-(7-(3-((4-hydroxypiperidin-1-yl)methyl)pyrrolidin-1-yl)-9H-benzo[e]pyrrolo[1,2-a] [1,2,4]triazolo[3,4-c][1,4]diazepin-12-yl)benzonitrile] | < 50 nM
Cc1nnc2n1-c1ccc(N3CC[C@@H](CN(C)C)C3)cc1Cn1cc(-c3ccc(C#N)cc3)cc1-2 [Compound 228, 4-(7-((S)-3-((dimethylamino)methyl)pyrrolidin-1-yl)-3-methyl-9H-benzo[e]pyrrolo[1,2-a] [1,2,4]triazolo[3,4-c][1,4]diazepin-12-yl)benzonitrile] | 50 to 100 nM
CN(C)[C@@H]1CN(c2ccc3c(c2)Cn2cc(-c4ccc(C#N)cc4)cc2-c2nccn2-3)C[C@@H]1O [Compound 134, 4-(7-((3R,4S)-3-(dimethylamino)-4-hydroxypyrrolidin-1-yl)-9H-benzo[e]imidazo[2,1-c]pyrrolo[1,2-a][1,4]diazepin-12-yl)benzonitrile] | < 50 nM
NC[C@@H]1CN(c2ccc3c(c2)Cn2cc(-c4ccc(F)cc4)cc2-c2nccn2-3)C[C@H]1O [Compound 366, (3S,4R)-4-(aminomethyl)-1-(12-(4-fluorophenyl)-9H-benzo[e]imidazo[2,1-c]pyrrolo[1,2-a] [1,4]diazepin-7-yl)pyrrolidin-3-ol] | < 50 nM
CN[C@@H]1CN(c2ccc3c(c2)Cn2cc(-c4ccc(F)cc4)cc2-c2ncnn2-3)C[C@H]1CO (relative stereo) [Compound 505, (Trans-1-(12-(4-fluorophenyl)-9H-benzo[e]pyrrolo[1,2-a][1,2,4]triazolo[5,1-c][1,4]diazepin-7-yl)-4-(methylamino)pyrrolidin-3-yl)methanol] | 50 to 100 nM
Fc1ccc(-c2cc3n(c2)Cc2cc(N4CCC5(CNC5)C4)ccc2-n2cnnc2-3)cc1 [Compound 336, 12-(4-fluorophenyl)-7-(2,6-diazaspiro[3.4]octan-6-yl)-9H-benzo[e]pyrrolo[1,2-a][1,2,4] triazolo[3,4-c][1,4]diazepine] | < 50 nM
CN(C)[C@@H]1CCN(c2ccc3c(c2)Cn2cc(-c4ccc(C#N)cc4)cc2-c2ncc(CN)n2-3)C1 [Compound 277, 4-(3-(aminomethyl)-7-((R)-3-(dimethylamino)pyrrolidin-1-yl)-9H-benzo[e]imidazo[2,1-c]pyrrolo[1,2-a][1,4]diazepin-12-yl)benzonitrile] | 50 to 100 nM
CNC[C@@H]1CN(c2ccc3c(c2)Cn2cc(-c4ccc(F)cc4)cc2-c2nccn2-3)C[C@@H]1O [Compound 483, (3R,4R)-1-(12-(4-fluorophenyl)-9H-benzo[e]imidazo[2,1-c]pyrrolo[1,2-a][1,4]diazepin-7-yl)-4-((methylamino)methyl)pyrrolidin-3-ol] | < 50 nM
CN(C)[C@@H]1CN(c2ccc3c(n2)Cn2cc(-c4ccc(F)cc4)cc2-c2nccn2-3)C[C@H]1O [Compound 431, (3R,4R)-4-(dimethylamino)-1-(12-(4-fluorophenyl)-9H-imidazo[2,1-c]pyrido[3,2-e]pyrrolo[1,2-a][1,4]diazepin-7-yl)pyrrolidin-3-ol] | < 50 nM
CN(C)C[C@H]1CN(c2ccc3c(c2)Cn2cc(-c4ccc(F)cc4)cc2-c2ncnn2-3)C[C@H]1F (relative stereo) [Compound 502, 1-(cis-4-fluoro-1-(12-(4-fluorophenyl)-9H-benzo[e]pyrrolo[1,2-a][1,2,4]triazolo[5,1-c][1,4]diazepin-7-yl)pyrrolidin-3-yl)-N,N-dimethylmethanamine] | < 50 nM
Fc1ccc(-c2cc3n(c2)Cc2nc(N4CCC5(CNC5)C4)ccc2-n2ccnc2-3)cc1 [Compound 440, 12-(4-fluorophenyl)-7-(2,6-diazaspiro[3.4]octan-6-yl)-9H-imidazo[2,1-c]pyrido[3,2-e] pyrrolo[1,2-a][1,4]diazepine] | < 50 nM
CN(C)C[C@@H]1CCN(c2ccc3c(c2)Cn2cc(-c4ccc(F)cc4)cc2-c2nccn2-3)C1 [Compound 345, (S)-1-(1-(12-(4-fluorophenyl)-9H-benzo[e]imidazo[2,1-c]pyrrolo[1,2-a][1,4]diazepin-7-yl)pyrrolidin-3-yl)-N,N-dimethylmethanamine] | < 50 nM
C[C@@H]1CN(c2ccc3c(c2)Cn2cc(-c4ccc(C#N)cc4)cc2-c2nnnn2-3)C[C@H](C)N1 [Compound 242, 4-(7-(cis-3,5-dimethylpiperazin-1-yl)-9H-benzo[e]pyrrolo[1,2-a]tetrazolo[5,1-c][1,4]diazepin-12-yl)benzonitrile] | 50 to 100 nM
CNC[C@H]1CN(c2ccc3c(c2)Cn2cc(-c4ccc(C#N)cc4)cc2-c2nncn2-3)C[C@H]1O (racemic) [Compound 73, 4-(7-(cis-3-hydroxy-4-((methylamino)methyl)pyrrolidin-1-yl)-9H-benzo[e]pyrrolo[1,2-a] [1,2,4]triazolo[3,4-c][1,4]diazepin-12-yl)benzonitrile] | < 50 nM
CN(C)[C@@H]1CN(c2ccc3c(n2)Cn2cc(-c4ccc(C#N)cc4)cc2-c2nccn2-3)C[C@H]1O [Compound 300, 4-(7-((3R,4R)-3-(dimethylamino)-4-hydroxypyrrolidin-1-yl)-9H-imidazo[2,1-c]pyrido[3,2-e]pyrrolo[1,2-a][1,4]diazepin-12-yl)benzonitrile] | < 50 nM
Fc1ccc(-c2cc3n(c2)Cc2cc(N4CC5(CCNC5)C4)ccc2-n2ccnc2-3)cc1 [Compound 378, 12-(4-fluorophenyl)-7-(2,6-diazaspiro[3.4]octan-2-yl)-9H-benzo[e]imidazo[2,1-c]pyrrolo[1,2-a][1,4]diazepine] | < 50 nM
CN(C)C[C@@H]1CN(c2ccc3c(c2)Cn2cc(-c4ccc(F)cc4)cc2-c2ncnn2-3)C[C@@H]1O [Compound 416, (3R,4R)-4-((dimethylamino)methyl)-1-(12-(4-fluorophenyl)-9H-benzo[e]pyrrolo[1,2-a][1,2,4]triazolo[5,1-c][1,4]diazepin-7-yl)pyrrolidin-3-ol] | < 50 nM
CN(C)C[C@@H]1CN(c2ccc3c(c2)Cn2cc(-c4ccc(F)cc4)cc2-c2ncnn2-3)C[C@@H]1F [Compound 500, 1-((3R,4R)-4-fluoro-1-(12-(4-fluorophenyl)-9H-benzo[e]pyrrolo[1,2-a][1,2,4]triazolo[5,1-c] [1,4]diazepin-7-yl)pyrrolidin-3-yl)-N,N-dimethylmethanamine] | 100 to 200 nM
C[C@H](CO)N1CC2(CCN(c3ccc4c(c3)Cn3cc(-c5ccc(F)cc5)cc3-c3nccn3-4)C2)C1 [Compound 370, (R)-2-(6-(12-(4-fluorophenyl)-9H-benzo[e]imidazo[2,1-c]pyrrolo[1,2-a][1,4]diazepin-7-yl)-2,6-diazaspiro[3.4]octan-2-yl)propan-1-ol] | < 50 nM
CN(C)[C@H]1CCN(c2ccc3c(c2)Cn2cc(-c4ccc(F)cc4F)cc2-c2nncn2-3)C1 [Compound 449, (S)-1-(12-(2,4-difluorophenyl)-9H-benzo[e]pyrrolo[1,2-a][1,2,4]triazolo[3,4-c][1,4]diazepin-7-yl)-N,N-dimethylpyrrolidin-3-amine] | 100 to 200 nM
N#Cc1ccc(-c2cc3n(c2)Cc2cc(N4CC[C@@H](CN5CCC(O)CC5)C4)ccc2-n2ccnc2-3)cc1 [Compound 142, (S)-4-(7-(3-((4-hydroxypiperidin-1-yl)methyl)pyrrolidin-1-yl)-9H-benzo[e]imidazo[2,1-c]pyrrolo[1,2-a][1,4]diazepin-12-yl)benzonitrile] | < 50 nM
O[C@@H]1CN(c2ccc3c(c2)Cn2cc(-c4ccc(F)cc4)cc2-c2nccn2-3)C[C@H]1CN1CCCC1 (relative stereo) [Compound 472, (Trans)-1-(12-(4-fluorophenyl)-9H-benzo[e]imidazo[2,1-c]pyrrolo[1,2-a][1,4]diazepin-7-yl)-4-(pyrrolidin-1-ylmethyl)pyrrolidin-3-ol] | < 50 nM
CN(C)[C@@H]1CN(c2ccc3c(n2)Cn2cc(-c4ccc(F)cc4)cc2-c2nccn2-3)C[C@@H]1O [Compound 433, (3S,4R)-4-(dimethylamino)-1-(12-(4-fluorophenyl)-9H-imidazo[2,1-c]pyrido[3,2-e]pyrrolo[1,2-a][1,4]diazepin-7-yl)pyrrolidin-3-ol] | 50 to 100 nM
CN[C@@H]1CCN(c2ccc3c(c2)Cn2c(cc(-c4ccc(C#N)cc4)c2Cl)-c2nncn2-3)C1 [Compound 166, (R)-4-(11-chloro-7-(3-(methylamino)pyrrolidin-1-yl)-9H-benzo[e]pyrrolo[1,2-a][1,2,4]tri-azolo[3,4-c][1,4]diazepin-12-yl)benzonitrile] | 100 to 200 nM
Fc1ccc(-c2cc3n(c2)Cc2cc(N4CCC5(C4)CN(C4CCCC4)C5)ccc2-n2ccnc2-3)cc1 [Compound 375, 7-(2-cyclopentyl-2,6-diazaspiro[3.4]octan-6-yl)-12-(4-fluorophenyl)-9H-benzo[e]imidazo[2,1-c]pyrrolo[1,2-a][1,4]diazepine] | < 50 nM
CN(C)C[C@@H]1CN(c2ccc3c(c2)Cn2cc(-c4ccc(F)cc4)cc2-c2nccn2-3)C[C@@H]1F [Compound 475, 1-((3R,4R)-4-fluoro-1-(12-(4-fluorophenyl)-9H-benzo[e]imidazo[2,1-c]pyrrolo[1,2-a][1,4]diazepin-7-yl)pyrrolidin-3-yl)-N,N-dimethylmethanamine] | < 50 nM
